Like-named read-outs stand apart in the source and are kept apart here.
Tests used:
[1] = tested on: Botrytis cinerea; test: Synergistic Growth Inhibition Assay (MIC / FIC index, resazurin, 96-well) on Botrytis cinerea; type: cell-based; settings: Botrytis cinerea
Protocol: (§1) In some embodiments, the synergistic action between the pesticidal active ingredient, and the at least one C4-C10 (or alternatively C11 or C12) saturated or unsaturated aliphatic acid components of the pesticidal compositions according to embodiments of the present disclosure was tested using a Synergistic Growth Inhibition Assay, which is derived from and related to a checkerboard assay as is known in the art for testing of combinations of antimicrobial agents. In the Synergistic Growth Inhibition Assay used in accordance with some embodiments of the present disclosure, multiple dilutions of combinations of pesticidal active ingredient and at least one C4-C10 saturated or unsaturated aliphatic acid agents are tested in individual cells for inhibitory activity against a target pest or pathogenic organism. In one such embodiment, the combinations of pesticidal active ingredient and C4-C10 (or alternatively C11 or C12) saturated or unsaturated aliphatic acid agents may preferably be tested in decreasing concentrations. In a further such embodiment, the combinations of pesticidal active ingredient and C4-C10 (or alternatively C11 or C12) saturated or unsaturated aliphatic acid agents may be tested in increasing concentrations. These multiple combinations of the pesticidal active ingredient and at least one C4-C10 (or alternatively C11 or C12) saturated or unsaturated aliphatic acid agents may be prepared in 96-well microtiter plates. In one such embodiment, the Synergistic Growth Inhibition Assay then comprises rows which each contain progressively decreasing concentrations of the pesticidal active ingredient and one or more C4-C10 (or alternatively C11 or C12) saturated or unsaturated aliphatic acid agents to test for the MIC of the agents in combination at which growth of the target pest or pathogen is inhibited. Thus, each well of the microtiter plate is a unique combination of the two agents, at which inhibitory efficacy of the combination against the target pest or pathogen can be determined.
(§2) In one embodiment according to the present disclosure, for each row of microtiter cells in the Synergistic Growth Inhibition Assay, the FIC index is calculated from the lowest concentration of the pesticidal active ingredient and one or more C4-C10 saturated or unsaturated aliphatic acid agents necessary to inhibit growth of a target pest or pathogen. The FIC of each component is derived by dividing the concentration of the agent present in that well of the microtiter plate by the minimal inhibitory concentration (MIC) needed of that agent alone to inhibit growth of the target pest or pathogen. The FIC index is then the sum of these values for both agents in that well of the microtiter plate. The FIC index is calculated for each row as follows:
(§3) FICindex=MICa/MICA+MICb/MICB
(§4) Fractional inhibitory concentration indices may then used as measure of synergy. […] When the FIC index is equal to 1, the combination is additive.
(§5) Then, serial dilutions of these initial compositions in successive wells in the row of the microtiter plate were used to assay the pesticidal composition under the same conditions to determine the concentration of the composition combining the two agents corresponding to the microtiter well in which growth inhibition of the target pest or organism ceases.
(§6) Similarly to as described above, Resazurin was used as an indicator of growth or inhibition of growth of Botrytis cinerea in the exemplary Synergistic Growth Inhibition Assay. In addition to the color change of the resazurin, an optical or visual examination of the microtiter well may also be made to additionally determine the presence of growth or inhibition of growth of the Botrytis cinerea.

[2] = tested on: Alternaria solani; test: Synergistic Growth Inhibition Assay (MIC / FIC index) on Alternaria solani; type: cell-based; settings: for MIC (A): Compound A alone
Protocol: as §1, §2, §3, §4, §5
Alternatively, other suitable representative pest or pathogen organisms may be used to determine synergy of combinations of pesticidal active ingredient agents and one or more C4-C10 (or alternatively C11 or C12) saturated or unsaturated aliphatic acid agents in accordance with embodiments of the present disclosure. For example, other representative fungal pathogens may be used, such as but not limited to Leptosphaeria maculans, Sclerotinia spp. and Verticillium spp.

[3] = tested on: Fusarium oxysporum; test: Synergistic Growth Inhibition Assay (MIC / FIC index, resazurin, 96-well) on Fusarium oxysporum; type: cell-based
Protocol: as §1, §2, §3, §4, §5
Resazurin dye (also known as Alamar blue dye) was used as an indicator to determine the presence of growth or inhibition of growth of Fusarium oxysporum in the wells of the 96 well microtiter plates used in the exemplary Synergistic Growth Inhibition Assay. In addition to the color change of the resazurin dye in the presence of growth of the Fusarium oxysporum, an optical or visual examination of the microtiter well may also be made to additionally determine the presence of growth or inhibition of growth of the Fusarium oxysporum.

[4] = tested on: Trichoplusia ni; test: In-vitro insecticidal efficacy of Entrust SC (spinosad) with saturated and unsaturated aliphatic acids on artificial diet, Abbott and Colby formulae; type: in vivo, Trichoplusia ni (cabbage looper); settings: Entrust SC 0.034 ppm ([…] spinosad); aliphatic acid (salt) 500 ppm; Abbott-corrected
Protocol: An artificial diet suitable for Trichoplusia ni (cabbage looper caterpillar) was prepared from a commercially available general purpose lepidoptera artificial diet premix (General Purpose Lepidoptera Diet available from Frontier Scientific Services, Newark, Del.) mixed in agar media and then heated to liquify the media. The liquid artificial diet media was then used to fill each well of a 96-well treatment plate with 200 uL of artificial diet media, which was allowed to solidify at room temperature and stored at approximately 4 C.
A 20 uL treatment sample of each treatment formulation was then placed on top of the solidified artificial diet media in each well of the 96 well plates and allowed to dry overnight. The following day, one neonate Trichoplusia ni (cabbage looper) larva (hatched from eggs obtained from the Natural Resource Canada insect research facility in Sault-Ste-Marie, ON, Canada) was added to each well of the plate, and their mortality rate was evaluated after 5 days, to determine the insecticidal efficacy of the Entrust® SC treatment alone, each exemplary unsaturated or saturated aliphatic acid (and salt) alone, and each combination of spinosad (as Entrust® SC) and unsaturated or saturated aliphatic acid (and salt). Each experiment contained 3 replicates.
While for SF<1, antagonism is present and for SF=1, the efficacy of the compounds is merely additive.

[5] = tested on: Sclerotinia sclerotiorum; test: Synergistic Growth Inhibition Assay (MIC / FIC index, resazurin, 96-well) on Sclerotinia sclerotiorum; type: cell-based; settings: for MIC: Sclerotinia sclerotiorum
Protocol: as §1, §2, §3, §4, §5
as §6, with “Sclerotinia sclerotiorum” for “Botrytis cinerea”, “Sclerotinia sclerotiorum.” for “Botrytis cinerea.”

[6] = Compound A alone, incubation period of 48 hours
[7] = Alternaria solani, Compound B alone, 7 days incubation, read-out: MIC (B)
[8] = Alternaria solani, Compound B alone, Alternaria solani, incubation period of 7 days, read-out: MIC (B)
[9] = Fusarium oxysporum, 48 h, Compound B alone, Fusarium oxysporum, 48 hours incubation, read-out: MIC (B)
[10] = 24 h, Table 75, Compound B = saturated aliphatic acid, alone or in combination with wintergreen oil, incubation period of 24 hours, read-out: MIC (B)
[11] = 24 h, Table 78, Compound B = saturated aliphatic acid, alone or in combination with oregano oil, incubation period of 24 hours, read-out: MIC (B)
[12] = Fusarium oxysporum, 96 h, Table 58, Compound B = saturated aliphatic acid, alone or in combination with oregano oil, incubation for 4 days, read-out: MIC (B)

Mancozeb [reference compound]
MIC (A) [1, 6]: 31.25 µg/mL
MIC (A) ([2]; 7 days incubation): 500 µg/mL

CCCCCCCCCC(=O)O [Decanoic acid, decanoic acid]
MIC ([3]; Fusarium oxysporum, 24 h, Table 53, Compound B = saturated aliphatic acid, alone or in combination with wintergreen oil, incubation for 24 hours, read-out: MIC (B)): 62.5 µg/mL
MIC ([3]; Fusarium oxysporum, 96 h, Compound B alone, incubation for 4 days, read-out: MIC (B)): 62.5 µg/mL
Observed Efficacy, W (%) [4]: 0%

CCCCC(CC)C(=O)O (stereo not shown) [2-ethylhexanoic acid]
MIC ([1]; 48 h, Compound B alone, 48 hours incubation, read-out: MIC (B)): 312 µg/mL
MIC ([1]; 48 h, Compound B alone, incubation period of 48 hours, read-out: MIC (B)): 312 µg/mL
MIC [2, 7]: 312 µg/mL
MIC ([5]; Compound B alone, incubation period of 7 days, read-out: MIC (B)): 625 µg/mL

CCCCCCC(C)C(=O)O (stereo not shown) [2-methyloctanoic acid]
MIC [2, 7]: 625 µg/mL
MIC [2, 8]: 156 µg/mL
MIC [3, 9]: 156 µg/mL

CCCCCCC(=O)O [Heptanoic acid, heptanoic acid]
MIC [1, 10]: 39.1 µg/mL
MIC [1, 11]: 78.1 µg/mL
MIC ([1]; 96 h, Table 76, Compound B = saturated aliphatic acid, alone or in combination with spearmint oil, incubation period of 4 days, read-out: MIC (B)): 78.1 µg/mL
MIC ([5]; Table 68, Compound B = saturated aliphatic acid, alone or in combination with clove leaf oil, incubation period of 7 days, read-out: MIC (B)): 78.1 µg/mL
MIC ([5]; Table 70, Compound B = saturated aliphatic acid, alone or in combination with rosemary oil, incubation period of 7 days, read-out: MIC (B)): 78.1 µg/mL
MIC ([3]; Fusarium oxysporum, 96 h, Table 54, Compound B = saturated aliphatic acid, alone or in combination with peppermint oil, incubation for 4 days, read-out: MIC (B)): 312 µg/mL
MIC ([3]; Fusarium oxysporum, 96 h, Table 55, Compound B = saturated aliphatic acid, alone or in combination with spearmint oil, incubation for 4 days, read-out: MIC (B)): 156 µg/mL
MIC [3, 12]: 78.1 µg/mL
Observed Efficacy, W (%) [4]: 9.1%

CCCCCC(=O)O [Hexanoic acid, hexanoic acid]
MIC ([1]; 24 h, read-out: MIC (B), Table 75, Compound B = saturated aliphatic acid, alone or in combination with wintergreen oil, incubation period of 24 hours): 39.1 µg/mL
MIC ([1]; 24 h, read-out: MIC (B), Table 78, Compound B = saturated aliphatic acid, alone or in combination with oregano oil, incubation period of 24 hours): 156 µg/mL
MIC ([1]; 96 h, read-out: MIC (B), Table 74, Compound B = saturated aliphatic acid, alone or in combination with thyme oil, incubation period of 4 days): 312 µg/mL
MIC ([1]; 96 h, read-out: MIC (B), Table 76, Compound B = saturated aliphatic acid, alone or in combination with spearmint oil, incubation period of 4 days): 312 µg/mL
MIC (B) ([1]; Compound B (aliphatic acid) alone, 2-fold dilutions, incubation period of 48 hours): 78.12 µg/mL
MIC ([3]; Fusarium oxysporum, 24 h, read-out: MIC (B), Table 51, Compound B = saturated aliphatic acid, alone or in combination with thyme oil, incubation for 24 hours): 78.1 µg/mL
MIC ([3]; Fusarium oxysporum, 24 h, read-out: MIC (B), Table 52, Compound B = saturated aliphatic acid, alone or in combination with garlic oil, incubation for 24 hours): 156 µg/mL
MIC ([3]; Fusarium oxysporum, 96 h, read-out: MIC (B), Table 54, Compound B = saturated aliphatic acid, alone or in combination with peppermint oil, incubation for 4 days): 156 µg/mL
MIC ([3]; Fusarium oxysporum, 96 h, read-out: MIC (B), Table 58, Compound B = saturated aliphatic acid, alone or in combination with oregano oil, incubation for 4 days): 156 µg/mL
Observed Efficacy, W (%) [4]: 27.3%

CCCCCCCCC(=O)O [Nonanoic acid, nonanoic acid]
MIC [1, 10]: 39.1 µg/mL
MIC [1, 11]: 78.1 µg/mL
MIC ([3]; Fusarium oxysporum, 24 h, read-out: MIC (B), Table 53, Compound B = saturated aliphatic acid, alone or in combination with wintergreen oil, incubation for 24 hours): 156 µg/mL
MIC [3, 12]: 78.1 µg/mL
MIC ([3]; Fusarium oxysporum, 96 h, read-out: MIC (B), Table 55, Compound B = saturated aliphatic acid, alone or in combination with spearmint oil, incubation for 4 days): 156 µg/mL
Observed Efficacy, W (%) [4]: 0%

CCCCCCC/C=C/C(=O)O [Trans-2 decenoic acid]
MIC (B) ([1]; Compound B alone, incubation period of 48 hours): 39.06 µg/mL
Observed Efficacy, W (%) [4]: 0%

O=C(O)CCCCCCCO [8-hydroxyoctanoic acid]
MIC ([2]; Alternaria solani, read-out: MIC (B), Compound B alone, 7 days incubation): 2500 µg/mL
MIC ([5]; read-out: MIC (B), Compound B alone, 7 days incubation): 2500 µg/mL
MIC ([5]; read-out: MIC (B), Compound B alone, incubation period of 7 days): 5000 µg/mL
MIC ([3]; Fusarium oxysporum, 48 h, read-out: MIC (B), Compound B alone, Fusarium oxysporum, 48 hours incubation): 5000 µg/mL
MIC ([3]; Fusarium oxysporum, 48 h, read-out: MIC (B), Compound B alone, Fusarium oxysporum, incubation period of 48 hours): 5000 µg/mL

CCCCCCC=CCC(=O)O [3-Decenoic acid, 3-decenoic acid]
MIC (B) ([3]; Compound B (aliphatic acid) alone, Fusarium oxysporum, incubation period of 48 hours): 312.5 µg/mL
Observed Efficacy, W (%) [4]: 0%

CO/C=C(/C(=O)OC)c1ccccc1COc1cccc(C(F)(F)F)n1 [Picoxystrobin, reference compound]
MIC (A) [1, 6]: 250 µg/mL
MIC (A) ([2]; Alternaria solani, incubation period of 7 days): 500 µg/mL
MIC (A) ([5]; Compound A alone, 7 days incubation): 500 µg/mL

CCC/C=C/C(=O)O [Trans-2-hexenoic acid, trans-2-hexenoic acid]
MIC (B) ([3]; Compound B alone, 24 hour incubation): 312.5 µg/mL
Observed Efficacy, W (%) [4]: 0%

CCCCCCCCC(C)C(=O)O (stereo not shown) [2-methyldecanoic acid]
MIC ([1]; 48 h, Compound A alone, incubation period of 48 hours, read-out: MIC (A)): 15.6 µg/mL
MIC [2, 7]: 1000 µg/mL
MIC [2, 8]: 125 µg/mL
MIC [3, 9]: 62.5 µg/mL
